# Measured values: US20100311729A1, “Substituted imidazopyridazines and pyrrolopyrimidines as lipid kinase inhibitors” (priority 2007, published 2010)
# Assays:
# Type in all cases: biochemical
# PI3K beta = target: T1, PI3K beta (Homo sapiens, UniProt P42338); assay: PI3 kinase assay (Kinase-Glo luminescence), PI3K beta; conditions: Enzymatic Data; read-out: PI3K beta IC50 [umol]
# T1 construct: for the full-length p110-b subunit are generated and fused by overlapping PCR; His tag (C); made in house; host or cells: baculovirus; Tn5 (Trichoplusia ni) or TiniPro insect cells
# T1 sequence (P42338 with tags, fused parts or gaps limits assumed): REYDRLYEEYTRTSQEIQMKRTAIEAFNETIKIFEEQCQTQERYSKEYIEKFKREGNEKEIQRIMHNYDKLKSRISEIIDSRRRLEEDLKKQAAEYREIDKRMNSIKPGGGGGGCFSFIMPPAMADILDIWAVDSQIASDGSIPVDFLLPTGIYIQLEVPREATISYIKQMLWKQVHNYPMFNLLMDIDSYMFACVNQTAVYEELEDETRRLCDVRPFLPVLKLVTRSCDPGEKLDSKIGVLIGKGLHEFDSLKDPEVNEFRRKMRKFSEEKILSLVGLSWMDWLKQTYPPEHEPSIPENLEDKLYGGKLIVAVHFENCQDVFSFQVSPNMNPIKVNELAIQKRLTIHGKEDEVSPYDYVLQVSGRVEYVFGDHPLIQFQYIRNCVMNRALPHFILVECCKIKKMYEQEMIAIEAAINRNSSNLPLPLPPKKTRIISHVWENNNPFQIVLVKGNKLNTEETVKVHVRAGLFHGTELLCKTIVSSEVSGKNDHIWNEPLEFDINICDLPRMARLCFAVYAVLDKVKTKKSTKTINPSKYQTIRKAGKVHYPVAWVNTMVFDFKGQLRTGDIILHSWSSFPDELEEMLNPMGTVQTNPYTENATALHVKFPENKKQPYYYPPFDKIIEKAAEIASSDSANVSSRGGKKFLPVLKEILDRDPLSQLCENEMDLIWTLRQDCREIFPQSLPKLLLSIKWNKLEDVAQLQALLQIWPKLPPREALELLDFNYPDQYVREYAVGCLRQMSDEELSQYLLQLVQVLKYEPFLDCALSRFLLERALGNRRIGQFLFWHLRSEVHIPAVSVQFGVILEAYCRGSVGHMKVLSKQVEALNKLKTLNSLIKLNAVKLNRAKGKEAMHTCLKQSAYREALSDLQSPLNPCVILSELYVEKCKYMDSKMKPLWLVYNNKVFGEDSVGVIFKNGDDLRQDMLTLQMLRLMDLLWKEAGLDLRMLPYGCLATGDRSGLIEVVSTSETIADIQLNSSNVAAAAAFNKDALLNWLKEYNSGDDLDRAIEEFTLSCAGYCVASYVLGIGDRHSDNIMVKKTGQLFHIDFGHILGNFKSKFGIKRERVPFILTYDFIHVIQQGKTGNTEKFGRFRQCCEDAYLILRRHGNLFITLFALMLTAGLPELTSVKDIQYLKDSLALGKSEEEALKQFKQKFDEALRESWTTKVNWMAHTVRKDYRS
# Outline: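 PI3Kβ (25 nM, BV-949) with 10 μg/mL phosphatidylinositol in Tris pH 7.5/MgCl2/NaCl/CHAPS/DTT buffer; reaction started with 1 μM ATP, 60 min at room temperature. ATP depletion read by Kinase-Glo luminescence; 8-point dilutions, IC50 by four-parameter logistic fit.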
# PI3K gamma = target: T2, PI3K gamma (Homo sapiens, UniProt P48736); assay: PI3 kinase assay (Kinase-Glo luminescence), PI3K gamma; conditions: Enzymatic Data; read-out: PI3K gamma IC50 [umol]
# T2 construct: PI3Kγ BV-950 p110g(D144aa)-C-Term His Tag; His tag (C); made in house; host or cells: construct from the Roger Williams lab (MRC LMB) in pVL1393; baculovirus; Tn5 (Trichoplusia ni) or TiniPro insect cells
# T2 sequence (P48736 144-1102 limits assumed): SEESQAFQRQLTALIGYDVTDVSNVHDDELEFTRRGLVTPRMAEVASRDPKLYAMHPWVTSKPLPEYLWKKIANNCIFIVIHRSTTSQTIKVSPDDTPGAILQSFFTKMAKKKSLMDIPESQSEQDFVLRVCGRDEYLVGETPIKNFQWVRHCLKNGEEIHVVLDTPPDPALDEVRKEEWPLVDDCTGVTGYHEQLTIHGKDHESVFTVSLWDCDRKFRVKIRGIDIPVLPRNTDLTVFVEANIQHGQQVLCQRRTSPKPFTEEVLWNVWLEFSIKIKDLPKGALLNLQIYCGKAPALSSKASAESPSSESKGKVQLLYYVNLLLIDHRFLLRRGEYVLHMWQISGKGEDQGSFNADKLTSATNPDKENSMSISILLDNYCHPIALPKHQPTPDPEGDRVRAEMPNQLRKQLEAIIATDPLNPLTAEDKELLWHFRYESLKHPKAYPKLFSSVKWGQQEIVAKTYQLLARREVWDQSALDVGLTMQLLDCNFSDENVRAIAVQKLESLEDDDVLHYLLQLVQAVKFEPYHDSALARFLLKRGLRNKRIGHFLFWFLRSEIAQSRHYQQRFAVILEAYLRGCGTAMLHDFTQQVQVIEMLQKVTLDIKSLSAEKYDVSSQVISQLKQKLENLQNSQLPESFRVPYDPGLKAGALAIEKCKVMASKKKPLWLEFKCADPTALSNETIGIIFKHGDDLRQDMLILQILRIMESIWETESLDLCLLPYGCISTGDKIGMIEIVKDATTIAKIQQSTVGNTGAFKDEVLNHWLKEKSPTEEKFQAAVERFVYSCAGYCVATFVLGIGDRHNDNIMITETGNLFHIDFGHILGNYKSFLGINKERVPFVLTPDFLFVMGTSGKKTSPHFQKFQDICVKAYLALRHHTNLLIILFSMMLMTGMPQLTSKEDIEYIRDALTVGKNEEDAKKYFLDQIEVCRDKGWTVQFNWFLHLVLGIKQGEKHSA
# Outline: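 Kinase-Glo luminescence assay with 1 μM ATP and 10 μg/mL phosphatidylinositol (final), reaction started by ATP addition. IC50 from 4-parameter logistic fit of percent inhibition at 8 compound concentrations (usually 10 down to 0.003 […]).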
# PI3K alfa = target: T3, PI3K alfa (Homo sapiens, UniProt P42336); assay: PI3 kinase assay (Kinase-Glo luminescence), PI3K alfa; conditions: Enzymatic Data; read-out: PI3K alfa IC50 [umol]
# T3 construct: for the p110-a subunit (with a deletion of the first 20 amino acids); His tag (C); made in house; host or cells: baculovirus; Tn5 (Trichoplusia ni) or TiniPro insect cells
# T3 sequence (P42336 with tags, fused parts or gaps limits assumed): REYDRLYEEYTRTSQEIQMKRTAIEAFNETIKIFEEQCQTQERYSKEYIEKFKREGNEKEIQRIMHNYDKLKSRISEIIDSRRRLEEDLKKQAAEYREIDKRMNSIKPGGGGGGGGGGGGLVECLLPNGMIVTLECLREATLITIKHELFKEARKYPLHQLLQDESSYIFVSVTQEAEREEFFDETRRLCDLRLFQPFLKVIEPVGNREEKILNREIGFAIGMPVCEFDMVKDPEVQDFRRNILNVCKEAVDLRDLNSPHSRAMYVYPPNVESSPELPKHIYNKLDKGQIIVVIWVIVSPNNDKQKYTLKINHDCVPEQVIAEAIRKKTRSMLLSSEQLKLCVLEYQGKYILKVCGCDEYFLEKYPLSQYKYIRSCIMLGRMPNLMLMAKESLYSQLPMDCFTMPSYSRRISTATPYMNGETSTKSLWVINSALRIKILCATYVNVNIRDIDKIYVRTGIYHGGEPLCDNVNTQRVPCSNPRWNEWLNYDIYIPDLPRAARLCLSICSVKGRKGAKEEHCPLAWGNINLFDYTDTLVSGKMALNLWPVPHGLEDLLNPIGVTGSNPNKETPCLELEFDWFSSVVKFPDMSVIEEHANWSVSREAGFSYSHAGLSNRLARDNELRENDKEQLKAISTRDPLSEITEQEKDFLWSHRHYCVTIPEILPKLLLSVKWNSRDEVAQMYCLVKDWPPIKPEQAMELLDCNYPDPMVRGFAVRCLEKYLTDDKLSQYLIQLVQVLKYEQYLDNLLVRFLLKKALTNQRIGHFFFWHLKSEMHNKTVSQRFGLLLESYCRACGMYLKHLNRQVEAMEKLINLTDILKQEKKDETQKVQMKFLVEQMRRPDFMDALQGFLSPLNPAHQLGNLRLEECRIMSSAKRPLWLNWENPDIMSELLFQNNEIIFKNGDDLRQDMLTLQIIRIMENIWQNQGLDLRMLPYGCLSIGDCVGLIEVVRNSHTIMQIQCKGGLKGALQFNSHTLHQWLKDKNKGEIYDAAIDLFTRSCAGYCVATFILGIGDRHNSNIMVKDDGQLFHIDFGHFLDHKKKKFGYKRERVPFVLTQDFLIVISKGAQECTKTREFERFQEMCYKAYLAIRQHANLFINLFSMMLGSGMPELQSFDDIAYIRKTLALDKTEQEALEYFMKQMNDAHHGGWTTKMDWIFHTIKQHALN
# Outline: (§1)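 Recombinant PI3K constructs (alfa 10 nM, delta 10 nM, gamma 150 nM) with 1 μM ATP and 10 μg/mL phosphatidylinositol in Tris pH 7.5, MgCl2, NaCl, CHAPS, DTT; 60 min (alfa, delta) or 120 min (gamma) at room temperature. ATP depletion read by Kinase-Glo luminescence; IC50 from 4-parameter logistic fit over 8 concentrations.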
# PI3K delta = target: T4, PI3K delta (Homo sapiens, UniProt O00329); assay: PI3 kinase assay (Kinase-Glo luminescence), PI3K delta; conditions: Enzymatic Data; read-out: PI3K delta IC50 [umol]
# T4 construct: for the full-length p110-d subunit are generated and fused by overlapping PCR; His tag (C); made in house; host or cells: baculovirus; Tn5 (Trichoplusia ni) or TiniPro insect cells
# T4 sequence (O00329 with tags, fused parts or gaps limits assumed): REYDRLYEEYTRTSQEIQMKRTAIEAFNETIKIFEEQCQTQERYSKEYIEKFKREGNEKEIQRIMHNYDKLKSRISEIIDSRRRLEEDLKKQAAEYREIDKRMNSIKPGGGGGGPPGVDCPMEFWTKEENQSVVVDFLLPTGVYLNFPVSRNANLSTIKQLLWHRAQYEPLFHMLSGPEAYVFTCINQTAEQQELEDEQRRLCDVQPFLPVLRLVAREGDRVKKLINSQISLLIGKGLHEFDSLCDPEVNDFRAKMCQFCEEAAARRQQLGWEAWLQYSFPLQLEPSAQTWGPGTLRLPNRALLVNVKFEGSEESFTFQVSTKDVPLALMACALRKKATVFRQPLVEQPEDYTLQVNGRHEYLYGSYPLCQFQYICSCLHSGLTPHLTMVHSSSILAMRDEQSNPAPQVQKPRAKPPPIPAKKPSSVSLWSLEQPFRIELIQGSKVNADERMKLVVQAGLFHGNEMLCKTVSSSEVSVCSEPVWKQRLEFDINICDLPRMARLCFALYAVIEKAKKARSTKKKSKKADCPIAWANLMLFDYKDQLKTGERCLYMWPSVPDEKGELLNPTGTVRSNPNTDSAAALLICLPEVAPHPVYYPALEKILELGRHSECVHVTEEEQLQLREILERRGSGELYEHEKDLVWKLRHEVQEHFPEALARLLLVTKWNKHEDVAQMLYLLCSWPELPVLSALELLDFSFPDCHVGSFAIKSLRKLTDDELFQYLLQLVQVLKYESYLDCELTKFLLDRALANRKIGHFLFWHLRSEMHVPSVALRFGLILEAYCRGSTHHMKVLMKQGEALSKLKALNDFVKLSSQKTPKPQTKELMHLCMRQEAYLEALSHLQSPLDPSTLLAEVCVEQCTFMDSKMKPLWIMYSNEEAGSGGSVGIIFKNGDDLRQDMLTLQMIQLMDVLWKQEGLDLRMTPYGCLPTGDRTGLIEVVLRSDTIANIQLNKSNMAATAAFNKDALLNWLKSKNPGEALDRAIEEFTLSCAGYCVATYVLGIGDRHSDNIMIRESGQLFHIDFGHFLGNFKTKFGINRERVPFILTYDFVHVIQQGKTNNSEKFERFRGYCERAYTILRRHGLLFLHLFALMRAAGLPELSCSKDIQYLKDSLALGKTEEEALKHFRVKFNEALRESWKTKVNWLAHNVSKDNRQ
# Outline: as §1
IC50 (PI3K beta) [nM],IC50 (PI3K gamma) [nM],IC50 (PI3K alfa) [nM],IC50 (PI3K delta) [nM],Structure (SMILES)
139,1030,66,22,"Nc1ncc(-c2ccc3ncc(-c4cnc5c(ccn5CCN5CCOCC5)c4)n3n2)cc1C(F)(F)F [Example 126, 5-{3-[1-(2-Morpholin-4-yl-ethyl)-1H-pyrrolo [2,3-b]pyridin-5-yl]-imidazo [1,2-b]pyridazin-6-yl}-3-trifluoro-methyl-pyridin-2-ylamine]"
21,2630,34,85,"COc1nc(-c2cnc3ccc(-c4cnc(N)c(C(F)(F)F)c4)nn23)cnc1N [Example 67, 5-[6-(6-Amino-5-trifIuoro-methyl-pyridin-3-yl)-imidazo[1,2-b]pyridazin-3-yl]-3-methoxy-pyrazin-2-ylamine]"
82,638,21,13,"Nc1ncc(-c2ccc3ncc(-c4ccc(C(=O)NCCCN5CCOCC5)cc4)n3n2)cc1C(F)(F)F [Example 81, 4-[6-(6-Amino-5-trifluoromethyl-pyridin-3-yl)-imidazo [1,2-b]pyridazin-3-yl]-N-(3-morpholin-4-yl-propyl)-benzamide]"
2760,543,74,88,"Nc1ncc(-c2cnc3ccc(-c4ccc(OCCCN5CCCC5=O)cc4)nn23)cc1C(F)(F)F [Example 89, 1-(3-{4-[3-(6-Amino-5-trifluoro-methyl-pyridin-3-yl)-imidazo [1,2-b]pyridazin-6-yl]-phenoxy}-propyl)-pyrrolidin-2-one]"
> 9100,4690,1140,1110,"Nc1ncc(-c2cnc3ccc(-c4ccc(OCCCN5CCCC5=O)c(F)c4)nn23)cc1C(F)(F)F [Example 90, 1-(3-{4-[3-(6-Amino-5-trifluoro-methyl-pyridin-3-yl)-imidazo [1,2-b]pyridazin-6-yl]-2-fluoro-phenoxy}-propyl)-pyrrolidin-2-one]"
166,558,27,23,"CN(C)C(=O)c1ccc(CNC(=O)c2ccc(-c3cnc4ccc(-c5cnc(N)c(C(F)(F)F)c5)nn34)cc2)cc1 [Example 83, N-(4-N-dimethylacetyl-benzyl)-4-[6-(6-amino-5-trifluoro-methyl-pyridin-3-yl)-imidazo [1,2-b]pyridazin-3-yl]-benzamide]"
986,1400,43,199,"Nc1ncc(-c2cnc3ccc(-c4ccc(C(=O)NCCN5CCOCC5)cc4)nn23)cc1C(F)(F)F [Example 122, 4-[3-(6-Amino-5-trifluoro-methyl-pyridin-3-yl)-imidazo [1,2-b]pyridazin-6-yl]-N-(2-morpholin-4-yl-ethyl)-benzamide]"
497,827,26,30,"CN(C)CCN1CCN(C(=O)c2ccc(-c3cnc4ccc(-c5cnc(N)c(C(F)(F)F)c5)nn34)cc2F)CC1 [Example 107, {4-[6-(6-Amino-5-trifluoro-methyl-pyridin-3-yl)-imidazo [1,2-b]pyridazin-3-yl]-2-fluoro-phenyl}-[4-(2-dimethyl-amino-ethyl)-piperazin-1-yl]-methanone]"
42,410,3,4,"COc1cc(-c2cnc3ccc(-c4cnc(N)c(C(F)(F)F)c4)nn23)ccc1C(=O)N1CCN(Cc2ccccn2)CC1 [Example 116, {4-[6-(6-Amino-5-trifluoro-methyl-pyridin-3-yl)-imidazo [1,2-b]pyridazin-3-yl]-2-methoxy-phenyl}-(4-pyridin-2-ylmethyl-piperazin-1-yl)-methanone]"
1240,1080,275,401,"COc1ccc(-c2ccc3ncc(-c4cncc(C(F)(F)F)c4)n3n2)cc1OC [Example 53, 6-(3,4-Di-methoxy-phenyl)-3-(5-trifluoro-methyl-pyridin-3-yl)-imidazo [1,2-b] pyridazine]"
> 9100,> 9100,138,280,"O=C(NCCCOc1ccc(-c2ccc3ncc(-c4cnc5[nH]ccc5c4)n3n2)cc1)C1CC1 [Example 137, Cyclo-propane-carboxylic acid (3-{4-[3-(1H-pyrrolo[2,3-b]pyridin-5-yl)-imidazo [1,2-b]pyridazin-6-yl]-phenoxy}-propyl)-amide]"
40,404,19,14,"CCN(CC)CCn1cnc2cc(-c3cnc4ccc(-c5cnc(N)c(C(F)(F)F)c5)nn34)cnc21 [Example 149, 5-{3-[3-(2-Diethyl-amino-ethyl)-3H-imidazo [4,5-b]pyridin-6-yl]-imidazo [1,2-b]pyridazin-6-yl}-3-trifluoro-methyl-pyridin-2-ylamine]"
182,490,26,55,"COc1cc(-c2cnc3ccc(-c4cnc(N)c(C(F)(F)F)c4)nn23)ccc1C(=O)NCCCN1CCOCC1 [Example 125, 4-[6-(6-Amino-5-trifluoro-methyl-pyridin-3-yl)-imidazo [1,2-b]pyridazin-3-yl]-2-methoxy-N-(3-morpholin-4-yl-propyl)-benzamide]"
505,483,26,345,COc1cc(-c2ccc3ncc(-c4cnc(N)c(C(F)(F)F)c4)n3n2)ccc1OCCCNC(=O)C1CC1 [Example 65]
639,> 9100,70,174,"Nc1ncc(-c2cnc3ccc(-c4ccc5c(c4)OCO5)nn23)cc1C(F)(F)F [Example 155, 5-(6-Benzo[1,3]dioxol-5-yl-imidazo [1,2-b]pyridazin-3-yl)-3-trifluoro-methyl-pyridin-2-ylamine]"
143,1420,27,21,"C=CS(=O)(=O)c1ccc(-c2cnc3ccc(-c4cnc(N)c(C(F)(F)F)c4)nn23)cc1 [Example 104, 5-[3-(4-Ethene-sulfonyl-phenyl)-imidazo [1,2-b]pyridazin-6-yl]-3-trifluoro-methyl-pyridin-2-ylamine]"
1270,1060,43,17,"Nc1ncc(-c2ccc3ncc(-c4ccc(S(=O)(=O)N5CCOCC5)cc4)n3n2)cc1C(F)(F)F [Example 102, 5-{3-[4-(Morpholine-4-sulfonyl)-phenyl]-imidazo[1,2-b]pyridazin-6-yl}-3-trifluoromethyl-pyridin-2-ylamine]"
137,406,9,13,"COc1cc(-c2cnc3ccc(-c4cnc(N)c(C(F)(F)F)c4)nn23)ccc1C(=O)N1CCN(CC(=O)N2CCOCC2)CC1 [Example 119, 2-(4-{4-[6-(6-Amino-5-trifluoro-methyl-pyridin-3-yl)-imidazo [1,2-b]pyridazin-3-yl]-2-methoxy-benzoyl}-piperazin-1-yl)-1-morpholin-4-yl-ethanone]"
1430,2430,50,156,"CC(C)(C)OC(=O)NCCn1cc(-c2ccc3ncc(-c4cnc(N)c(C(F)(F)F)c4)n3n2)ccc1=O [Example 69, (2-{5-[3-(6-Amino-5-trifluoro-methyl-pyridin-3-yl)-imidazo [1,2-b]pyridazin-6-yl]-2-oxo-2H-pyridin-1-yl}-ethyl)-carbamic acid tert-butyl ester]"
